The nature of assay [1]: Agonist activity at estrogen receptor in human Ishikawa cells assessed as increase of alkaline phosphatase level after 3 days using P-nitrophenyl phosphate as substrate. Format: functional, cell-based. As to conditions: 72 h.
Assay [2] concerns the target T1, Estrogen receptor (Homo sapiens) (UniProt P03372).
T1 sequence (whole entry): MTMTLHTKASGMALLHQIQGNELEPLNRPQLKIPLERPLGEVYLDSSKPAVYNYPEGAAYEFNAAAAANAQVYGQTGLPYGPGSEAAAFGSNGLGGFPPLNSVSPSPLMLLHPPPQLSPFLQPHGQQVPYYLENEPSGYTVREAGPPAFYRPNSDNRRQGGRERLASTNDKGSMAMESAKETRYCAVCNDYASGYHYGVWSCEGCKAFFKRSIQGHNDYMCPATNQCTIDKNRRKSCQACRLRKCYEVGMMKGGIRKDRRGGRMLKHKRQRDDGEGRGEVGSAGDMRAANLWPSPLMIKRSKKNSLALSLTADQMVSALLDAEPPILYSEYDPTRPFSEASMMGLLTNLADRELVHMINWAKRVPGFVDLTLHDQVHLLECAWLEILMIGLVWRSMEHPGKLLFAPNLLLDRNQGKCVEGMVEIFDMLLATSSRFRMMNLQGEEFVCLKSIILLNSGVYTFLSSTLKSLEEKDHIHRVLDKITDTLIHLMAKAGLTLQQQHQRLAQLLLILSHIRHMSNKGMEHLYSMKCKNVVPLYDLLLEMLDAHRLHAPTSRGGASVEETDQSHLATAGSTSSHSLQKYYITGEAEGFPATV
The experiment in a line: Displacement of [3H]-estradiol from human […] LBD expressed in Escherichia coli at 1 uM to 1 pM relative to estradiol. (Displacement assays read how much labelled ligand stays bound in the presence of the test substance.)

Assay [3] is described as follows: Agonist activity at estrogen receptor in human Ishikawa cells assessed as increase of alkaline phosphatase level after 3 days using P-nitrophenyl phosphate as substrate relative to estradiol. Format: functional.
Another assay relates to Ishikawa. The experiment in a line: Antagonist activity at estrogen receptor in human Ishikawa cells assessed as inhibition of estradiol-induced alkaline phosphatase level after 3 days using P-nitrophenyl phosphate as substrate. Format: functional, cell-based.

Active and inactive are the calls of the source. The rule behind the calls is not given here.

By EC50 is commonly meant the concentration needed to bring the measured effect to its halfway point. For `C[C@]12CC[C@@H]3c4ccc(O)cc4CC[C@H]3[C@@H]1CC[C@@H]2O` [ESTRADIOL], the half-maximal effective concentration (EC50) in assay [1] was determined as 0.9 nM.
Turning to `C[C@]12CC[C@@H]3c4ccc(O)cc4CC[C@H]3[C@@H]1CC[C@@]2(O)/C=C/c1ccsc1`, the RBA in assay [2] stood at 2.9. Further, the RSA in assay [3] is reported as 2.5%. The inhibition result in the assay with Ishikawa was “inactive”.
`C[C@]12CC[C@@H]3c4ccc(O)cc4CC[C@H]3[C@@H]1CC[C@@]2(O)/C=C/c1ccncc1` displayed an RBA in assay [2] of 2.5. The RSA in assay [3] stood at 0.1%. In addition, the inhibition entry in the assay with Ishikawa is “inactive”.
Consider `C[C@]12CC[C@@H]3c4ccc(O)cc4CC[C@H]3[C@@H]1CC[C@@]2(O)/C=C/c1cccnc1`, for which the RBA in assay [2] was found to be 4. Further, the RSA in assay [3] is 0.25%. The inhibition result with Ishikawa was “inactive”.
In assay [2], `C[C@]12CC[C@@H]3c4ccc(O)cc4CC[C@H]3[C@@H]1CC[C@@]2(O)/C=C/c1cccs1` gave an RBA of 2.7. The RSA in assay [3] is given as 2.5%. Also, the inhibition entry in the assay on Ishikawa is “inactive”.
The matching figures for `C[C@]12CC[C@@H]3c4ccc(O)cc4CC[C@H]3[C@@H]1CC[C@@]2(O)/C=C/c1ccccc1`: 10.3, 9.5% and “inactive”.
For `C[C@]12CC[C@@H]3c4ccc(O)cc4CC[C@H]3[C@@H]1CC[C@@]2(O)/C=C/c1cncnc1`, the RBA in assay [2] was 0.8. The RSA in assay [3] turned out to be 0.4%. Further, the inhibition result in the assay on Ishikawa is “inactive”.
Take `C[C@]12CC[C@@H]3c4ccc(O)cc4CC[C@H]3[C@@H]1CC[C@@]2(O)/C=C/c1ccccn1`: the RBA in assay [2] amounted to 1.5. The RSA in assay [3] is reported as 0.1%. Moreover, the inhibition result in the assay on Ishikawa was “inactive”.

(Values after ChEMBL document CHEMBL1938377, “Synthesis and evaluation of 17α-E-20-(heteroaryl)norpregn-1,3,5(10),20 tetraene-3,17β-diols [17α-(heteroaryl)vinyl estradiols] as ligands for the estrogen receptor-α ligand binding domain (ERα-LBD)” (Bioorg Med Chem Lett, 2012).)
